Test results reported in paper PMC11874007, “Switching Roles—Exploring Concentration-Dependent Agonistic versus Antagonistic Behavior of Integrin Ligands” (Journal of Medicinal Chemistry, 2025).
Where two headings read alike, the source gives them in different places. Non-standard residues stand in square brackets, D forms with d. Chg = N[C@H](C(=O)O)C1CCCCC1; NMeV = CN[C@H](C(=O)O)C(C)C

Key:
[1] = biological target: human α5β1-integrin (human) (UniProt P08648); assay: ELISA; competitive ELISA-type solid-phase assay: human fibronectin (0.5 μg/mL) coated on the plate overnight at 4 °C, soluble human α5β1 (2.0 μg/mL) added with a dilution series of the ligand (20 μM to 256 pM), 1 h at RT; blocked in 20 mM Tris-HCl pH 7.5, 150 mM NaCl, 1 mM CaCl2, 1 mM MgCl2, 1 mM MnCl2, 1% BSA; bound integrin detected with anti-CD49e; IC50 referenced to cilengitide
human αvβ3-integrin = biological target: T1, human αvβ3-integrin (Homo sapiens, UniProt P05106+P06756); assay: ELISA-type solid-phase binding assay: soluble αvβ3 competing for immobilized vitronectin; settings: competitive ELISA-type assay, referenced to internal standard cilengitide (L2)
T1 construct: purchased R&D 3050-AV-050

human αvβ6-integrin [2] = biological target: T2, human αvβ6-integrin (Homo sapiens, UniProt P06756+P18564); assay: ELISA-type solid-phase binding assay: soluble αvβ6 competing for immobilized LAP (TGF-β); settings: competitive ELISA-type assay, referenced to internal standard RTDLDSLRT
T2 construct: purchased R&D 3817-AV-050

αvβ6- OV-MZ-6 cells = assay: Cellular uptake of Cy5.5-labeled ligands, OV-MZ-6 control cells; assay type: cell-based; settings: 1 μM Cy5.5-labeled ligand
Description: (§1) For intracellular drug delivery, integrin ligands designed as drug-conjugated vehicles have to be easily and selectively internalized by tumor cells (over)expressing the respective targeted integrin subtype. […] It should be noted here that HN, OV-MZ-6, and RKO cells also express low αvβ3 expression levels.
(§2) Microchamber cell culture slides were coated with fibronectin (2 μg/mL), followed by cell seeding at a density of 50,000 cells/well. After 24 h of cultivation, cells were treated with integrin ligands L1-Cy5.5 to L5-Cy5.5 (1 μM in 0.01% (w/v) CaCl2 and 0.1% (w/v) BSA in PBS; 250 μL/well) for 3, 30, 60, or 300 min at 37 °C. The cells were washed in PBS/0.01% (w/v) CaCl2 (6 × 800 μL) and the fluorescence signal intensity recorded using the LSM 700 microscope (Zeiss, Jena, Germany). CellMask Green Plasma Membrane Stain was used to stain the cell membrane; nuclei were stained with Hoechst 33342.

human α5β1-integrin = biological target: T3, human α5β1-integrin (Homo sapiens, UniProt P05556+P08648); assay: ELISA-type solid-phase binding assay: soluble α5β1 competing for immobilized fibronectin
T3 construct: purchased R&D 3230-A5-050
Description: Prior to the biological evaluation of the ligands, their specificity and subtype-selective affinity was analyzed by an ELISA (enzyme-linked immune sorbent assay)-type solid-phase ligand binding assay[59] by measuring the competitive binding of soluble purified integrins in the presence of the respective ligands to plate-immobilized purified ECM proteins, as described in Experimental Section: vitronectin (for αvβ3-directed ligands), fibronectin (for α5β1-directed ligands), or the latency-associated peptide (LAP) of transforming growth factor-β (TGF-β) (for αvβ6-directed ligands). Then, we determined whether Cy5.5 conjugation of ligands led to altered ligand binding affinities and integrin subtype selectivity compared to the unlabeled compounds. In the following, we describe in detail the alterations detected.
(3) 2.0 μg/mL mouse-anti-human CD51/61 (BD Biosciences, Franklin Lakes, New Jersey, USA; #555504). (4) 2.0 μg/mL anti-mouse IgG-POD (Sigma-Aldrich, #A9044-2ML). Integrin αvβ6: (1) 0.4 μg/mL LAP (TGF-β) (R&D, #246-LP-025), (2) 0.5 μg/mL human αvβ6 (R&D, #3817-AV-050), (3) 1:500 dilution mouse-anti-human αv (MAB1978) (Merck Millipore, #MAB1978), (4) 2.0 μg/mL anti-mouse IgG-POD (Sigma-Aldrich, #A9044-2ML). Integrin α5β1: (1) 0.5 μg/mL human fibronectin (Sigma-Aldrich, #F0895-1MG), (2) 2.0 μg/mL human α5β1 (R&D, 3230-A5-050), (3) 1.0 μg/mL mouse-anti-human CD49e (BD Biosciences, #555651), (4) 2.0 μg/mL anti-mouse IgG-POD (Sigma-Aldrich, #A9044-2 ML). For Western blot analysis, the following antibodies were used: (p-)p44/42^(erk-1/2) (1) 1:300 dilution of rabbit-anti-human p44/42^(erk-1/2) antibody (Cell Signaling Technology, Frankfurt, Germany, #9102) in 3% (w/v) bovine serum albumin (BSA)/TBS-T, (2) 1:5,000 dilution goat-anti-rabbit horseradish-conjugated secondary antibody in 1% (w/v) BSA/TBS-T. Phospho-p44/42^(erk-1/2): (1) 1:200 dilution rabbit-anti-human p44/42^(erk-1/2) (Thr202/Tyr204) antibody (Cell Signaling Technology, #9101) in 3% (w/v) BSA/TBS-T, (2) 1:5,000 dilution goat-anti-rabbit horseradish-conjugated secondary antibody in 1% (w/v) BSA/TBS-T. FAK: (1) 1:300 dilution mouse-anti-human FAK antibody (Cell Signaling Technology, #9102) in 3% (w/v) BSA/TBS-T, (2) 1:5,000 dilution goat-anti-mouse horseradish-conjugated secondary antibody in 1% (w/v) BSA/TBS-T. Phospho-FAK: (1) 1:300 dilution mouse-anti-human p-FAK antibody (Cell Signaling Technology) in 3% (w/v) BSA/TBS-T, (2) 1:5,000 dilution goat-antimouse horseradish-conjugated secondary antibody in 1% (w/v) BSA/TBS-T. Differences in blotting efficiency and protein loading were normalized by using a primary antibody against glyceraldehyde-3-phosphate dehydrogenase (GAPDH, 1:10,000 dilution in 1% (w/v) BSA/TBS-T, at RT for 45 min (Millipore, Schwalbach, Germany) and a secondary horseradish-conjugated goat-anti-mouse antibody (1:10,000 dilution in 1% (w/v) BSA/TBS-T, 40 min at RT).
The integrin binding assay was done to assess the specificity and subtype-selective affinity of L1–L5 and their respective Cy5.5-conjugated ligands by using isolated and purified integrins in cell-free ligand binding assays, as previously published.[59]Table 2 summarizes the used ECM ligands, integrins, and antibodies. In brief, flat-bottom 96-well plates were coated overnight at 4 °C with the natural ECM integrin ligands, vitronectin (for αvβ3-directed ligands), fibronectin (for α5β1-directed ligands), or LAP of TGF-β1 (for αvβ6-directed ligands) (100 μL/well in buffer containing 15 mM Na2CO3, 35 mM NaHCO3, pH 9.6). Subsequently, each well was washed in PBS, 0.01% (v/v) Tween 20, 137 mM NaCl, 2.7 mM KCl, 10 mM Na2HPO4, 2 mM KH2PO4, pH 7.4 (PBS-T), and blocked for unspecific binding events for 1 h at RT in 20 mM Tris–HCl, pH 7.5, 150 mM NaCl, 1 mM CaCl2, 1 mM MgCl2, 1 mM MnCl2, and 1% (w/v) BSA. Meanwhile, dilution series of the different integrin ligands and the internal standards were prepared, ranging from 20 μM to 256 pM in 1:5 dilution steps. […]

HN cells (αvβ6+) = assay: Time-dependent cellular uptake of Cy5.5-labeled ligands, HN cells; assay type: cell-based; settings: 1 μM, within 3 min
Text: as §1
(§3) Figure 7 Cellular uptake of Cy5.5-labeled integrin ligands. […] Nuclei were costained with Hoechst 33342 (blue signal) and cell membranes with CellMask Green (green signal). Merge of stains (yellow signal) indicated colocalization of ligands at the cell membrane. Scale bar: 50 μm.
as §2

[3] = test system: M21 (αvβ3+), HN (αvβ6+), RKO (α5β1+) cells; assay: Time-dependent cellular uptake of Cy5.5-labeled ligands in cells overexpressing the targeted integrin; assay type: cell-based; settings: state within 30 min, Cy5.5-conjugated ligands, target integrin-expressing cells
Text: as §1, §3, §2

[4] = biological target: human α5β1-integrin (human) (UniProt P08648)
human αvβ6-integrin [5] = biological target: T4, human αvβ6-integrin (human, UniProt P06756 31-1048; P18564 22-709); assay: ELISA; competitive ELISA-type solid-phase assay: LAP of TGF-β1 (0.4 μg/mL) coated on the plate overnight at 4 °C, soluble human αvβ6 (0.5 μg/mL) added with a dilution series of the ligand (20 μM to 256 pM), 1 h at RT; blocked in 20 mM Tris-HCl pH 7.5, 150 mM NaCl, 1 mM CaCl2, 1 mM MgCl2, 1 mM MnCl2, 1% BSA; bound integrin detected with anti-αv; IC50 referenced to …; settings: both partners purified
T4 construct: integrin alpha-V, human, chain of the soluble purified αvβ6 heterodimer; integrin beta-6, human, chain of the soluble purified αvβ6 heterodimer; also called integrin αvβ6; source: bought: R&D, #3817-AV-050

[6] = competitive ELISA-type assay, referenced to internal standard cilengitide (L2)

Question: How did the IC50 [1] turn out when “L4-Cy5.5, the Cy5.5 conjugate of c(RGD-Chg-isoE)-CONH2 (L4) (peptide)” was run?
Answer: > 1000 nM

Question: `COc1ccnc(NCCCOc2ccc(C[C@@H](CC(=O)O)NC(=O)c3ccc(OCCCNC(=O)CCCCCNC(=O)CCCCC[N+]4=C(/C=C/C=C/C=C5/N(C)c6ccc7ccccc7c6C5(C)C)C(C)(C)c5c4ccc4ccccc54)cc3)cc2)c1` [L1-Cy5.5] was tested. Which IC50 (human αvβ3-integrin) did it give?
Answer: 1.02 ± 0.02 nM

Question: And the IC50 (human αvβ6-integrin [2])?
Answer: > 1000 nM

Question: What about the “Binding / intracellular uptake in control cells” value (shortened to “Binding / intracellular uptake”) (αvβ6- OV-MZ-6 cells) of the same molecule?
Answer: only minor intracellular traces

Question: And the IC50 (human α5β1-integrin; [6])?
Answer: > 1000 nM

Question: Which IC50 [1] does the source give for “L3-Cy5.5, the Cy5.5 conjugate of c(FRGDLAFp(NMe)K) (L3) (peptide)” here?
Answer: > 1000 nM

Question: For `Cc1cc(OCCCNC(=O)CCCCCNC(=O)CCCCC[N+]2=C(/C=C/C=C/C=C3/N(C)c4ccc5ccccc5c4C3(C)C)C(C)(C)c3c2ccc2ccccc32)cc(C)c1C(=O)N[C@@H](CNC(=O)CNC(=O)c1cccc(NC(=N)N)c1)C(=O)O` [L5-Cy5.5], which IC50 (human αvβ3-integrin) is on record?
Answer: > 1000 nM

Question: And the IC50 (human αvβ6-integrin [2])?
Answer: 154 ± 136 nM

Question: What about the IC50 (human α5β1-integrin; [6]) of the same molecule?
Answer: 4.69 ± 1 nM

Question: How did the “Binding / intracellular uptake” value (αvβ6- OV-MZ-6 cells) turn out when `CN1/C(=C/C=C/C=C/C2=[N+](CCCCCC(=O)NCCCCCC(=O)N[C@@H](CCCCNC(=O)[C@@H]3CCC(=O)N[C@@H](CCCNC(=N)N)C(=O)NCC(=O)N[C@@H](CC(=O)O)C(=O)N[C@@H](C4CCCCC4)C(=O)N3)C(N)=O)c3ccc4ccccc4c3C2(C)C)C(C)(C)c2c1ccc1ccccc21` [L4-Cy5.5] was run?
Answer: did not bind

Question: What about the IC50 (human α5β1-integrin) of the same molecule?
Answer: > 1000 nM

Question: How did the “Localization of Cy5.5-labeled ligand” value (HN cells (αvβ6+)) turn out when `CC(C)C[C@@H]1NC(=O)[C@H](CC(=O)O)NC(=O)CNC(=O)[C@H](CCCNC(=N)N)NC(=O)[C@H](Cc2ccccc2)NC(=O)[C@H](CCCCNC(=O)CCCCCNC(=O)CCCCC[N+]2=C(/C=C/C=C/C=C3/N(C)c4ccc5ccccc5c4C3(C)C)C(C)(C)c3c2ccc2ccccc32)N(C)C(=O)[C@H]2CCCN2C(=O)[C@H](Cc2ccccc2)NC(=O)[C@H](C)NC1=O` [L3-Cy5.5] was run?
Answer: already intracellularly visible

Question: What about the “Binding / intracellular uptake” value (αvβ6- OV-MZ-6 cells) of the same molecule?
Answer: did not bind

Question: What about the IC50 (human α5β1-integrin; [6]) of the same molecule?
Answer: > 1000 nM

Question: With c(RGD-Chg-isoE)-CONH2 [L4] as the molecule, how does the “Endocytosis of Cy5.5-conjugated ligand” value [3] read?
Answer: already completed

Question: How did the p-FAK level by Western blot in OV-MZ-6 cells (low αvβ3, α5β1+) with 1 nM cilengitide, 5 to 60 min [4] turn out when cyclo(RGD[dF][NMeV]) [cilengitide, c(RGDf(NMe)V) (L2)] was run?
Answer: 2.2 fold

B1: L4-Cy5.5, the Cy5.5 conjugate of c(RGD-Chg-isoE)-CONH2 (L4) (peptide)
chain: cyclo(RGD[Chg][isoE])
modifications: not fully specified (C-terminus); printed as c(RGD-Chg-isoE)-CONH2; also: Cy5.5 attached via Ahx linker, site not given here
Question: Which IC50 (human αvβ6-integrin [5]) does the source give for B1 here?
Answer: 7.63 ± 0.83 nM
